The text below walks through data of US7402402B2, “P38 MAPK pathway predicts endocrine-resistant growth of human breast cancer and provides a novel diagnostic and treatment target” (Baylor College of Medicine, priority 2001, dated 2008).

Structures are written as SMILES.

In assay [1] the test system is ER-positive MCF-7 human breast cancer cells. The settings on record: literature (Osborne et al., 1995), cited from earlier work.
Assay [2] has as its system p38 MAPK. The settings on record: baculovirus-expressed ERα, FIG. 3A.
A further assay concerns the target p38β (Homo sapiens, UniProt Q15759). As to the kind of experiment: In vitro kinase assay of Example 3: p38β-induced phosphorylation of ER. The class given is biochemical. The settings on record: ERα and ERβ substrates.
The test system of assay [3] is p38 MAPK. As to the kind of experiment: In vitro phosphorylation of Xenopus oocyte-expressed AIB1 by p38 MAPK. The class given is biochemical. The following applies: Xenopus oocyte-expressed AIB1, FIG. 4 lane 4.
The subject of assay [4] is ER-positive MCF-7 human breast cancer cells. As to the kind of experiment: MCF-7 human breast cancer xenografts in athymic nude mice, tumor volume. The class given is in vivo. The following applies: wild type MCF-7 xenografts, treatment from day 17, FIG. 2A; growth eventually resumes (Tam^R). The text has this:
The present inventors have developed an in vivo experimental model of tamoxifen resistance and resistance to estrogen deprivation in which ER-positive MCF-7 human breast cancer cells are inoculated subcutaneously into athymic nude mice [Osborne et al., 1987, Eur J Cancer Clin Oncol. 23(8):1189-1196; Osborne et al., 1991, J Natl Cancer Inst. 83(20):1477-1482]. […] This sequence of events is similar to that which occurs in patients. […] Since certain metabolites of tamoxifen have estrogenic properties, pharmacologic explanations for this tamoxifen-stimulated growth were investigated first.
ER-positive MCF-7 human breast cancer cells were grown as xenografts in athymic nude mice as described previously [Osborne et al., 1987, Eur J Cancer Clin Oncol. 23(8):1189-1196; Osborne et al., 1991, J Natl Cancer Inst. 83(20):1477-1482; Osborne et al., 1995, J Natl Cancer Inst 87:746-750]. Day 0 was the day of transplantation conducted and the day estrogen treatment began. These mice were treated with estrogen withdrawal (−E2) or tamoxifen (Tam) beginning on day 17. Tumor volume was measure every four days.

Chain of p38β (Q15759 whole entry): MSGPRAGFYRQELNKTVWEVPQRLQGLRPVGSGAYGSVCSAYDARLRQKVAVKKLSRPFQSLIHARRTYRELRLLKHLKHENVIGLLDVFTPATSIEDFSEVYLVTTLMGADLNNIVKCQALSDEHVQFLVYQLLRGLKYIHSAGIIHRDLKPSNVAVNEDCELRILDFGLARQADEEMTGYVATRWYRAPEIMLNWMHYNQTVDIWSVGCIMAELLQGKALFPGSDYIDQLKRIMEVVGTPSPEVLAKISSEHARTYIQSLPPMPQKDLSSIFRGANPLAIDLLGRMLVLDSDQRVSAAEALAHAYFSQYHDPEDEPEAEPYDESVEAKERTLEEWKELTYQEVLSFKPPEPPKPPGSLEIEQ

Regarding `C[C@]12CC[C@@H]3c4ccc(O)cc4C[C@@H](CCCCCCCCC[S+]([O-])CCCC(F)(F)C(F)(F)F)[C@H]3[C@@H]1CC[C@@H]2O` (stereo partly drawn) [ICI 182,780], the “growth of −E2^R and Tam^R resistant tumors” value in assay [1] (resistant xenograft tumors) is “can still be inhibited”.

Take `C[S+]([O-])c1ccc(-c2nc(-c3ccncc3)c(-c3ccc(F)cc3)[nH]2)cc1` (stereo not drawn) [SB 203580]: the “phosphorylation of ERα by p38 MAP kinase in the presence of inhibitor” value in the assay on p38 MAPK [2] is on record as “inhibited”. In addition, on p38β, the “p38β-induced phosphorylation of ER” value is on record as “can be inhibited”. Further, the “AIB1 phosphorylation by p38 MAPK” value in the assay on p38 MAPK [3] was “inhibits AIBI phosphorylation”.

Regarding `CC/C(=C(\c1ccccc1)c1ccc(OCCN(C)C)cc1)c1ccccc1` [tamoxifen], the “xenografted tumor growth (tumor volume over time)” value in assay [4] is “suppresses tumor growth for several months”. The “tumor growth in MCF-7 xenograft model” value in assay [1] (tumor growth later resumes despite continued treatment) was “suppresses tumor growth for several months”.
